Results as given in US20070167452A1, “Therapeutic amide derivatives” (PFIZER, INC., priority 2004, published 2007).

Legend:
HERG potassium channel = HERG potassium channel (Homo sapiens, UniProt Q12809); assay: Inhibition at HERG potassium channel (prior-art compound); conditions: background statement on prior-art compound of WO 0208928
NR2B receptor = target: T1, NR2B receptor (Rattus norvegicus, UniProt P35439+Q00960); assay: NR2B Binding Assay; conditions: forebrain P2 membranes of male CD rats; 5 nM [3H] NR2B ligand
T1 construct: Membranes were prepared by homogenization of forebrain of male CD rats; from tissue; host or cells: forebrain of male CD rats (P2 membrane)
Method: The activity of the cycloalkylene amide compounds of the present invention, as NR2B antagonists, is determined by their ability to inhibit the binding of NR2B subunit at its receptor sites employing radioactive ligands.
The NR^2B antagonist activity of the cycloalkylene amide compounds is evaluated by using the standard assay procedure described in, for example, J. Pharmacol., 331, pp 117-126, 1997. This method essentially involves determining the concentration of the individual compound required to reduce the amount of radiolabelled NR2B ligands by 50% at their receptor sites, thereby affording characteristic IC50 values for each compound tested. More specifically, the assay is carried out as follows.
Membranes were prepared by homogenization of forebrain of male CD rats weighing between 170˜190 g by using glass-Teflon homogenizer in 0.32 M sucrose at 4° C. The crude nuclear pellet was removed by centrifugation at 1000×g for 10 min, and the supernatant centrifuged at 17000×g for 25 min. The resulting pellet was resuspended in 5 mM Tris acetate pH 7.4 at 4° C. for 10 min to lyse cellular particles and again centrifuged at 17000×g. The resulting pellet (P2 membrane) was washed twice in Tris acetate, resuspended at 5.5 mg protein/ml and stored at −20° C. until use. All the manipulation was done on ice, and stock solution and equipment were kept on ice at all time.
For the saturation assay, receptor saturation was determined by incubating [^3H]-1-[(1S*,2S*)-2-hydroxy-2-(4-hydroxyphenyl)-1-methylethyl]-4-phenylpiperidin-4-ol and 50 μg protein of P2 membrane for 60 minutes at room temperature in a final 100 μl of incubation buffer (50 mM Tris HCl, pH7.4). Total and non-specific bindings (in the presence of 10 μM of unlabeled 1-[(1S*,2S*)-2-hydroxy-2-(4-hydroxyphenyl)-1-methylethyl]-4-phenylpiperidin-4-ol) were determined in a range of [^3H]-1-[(1S*,2S*)-2-hydroxy-2-(4-hydroxyphenyl)-1-methylethyl]-4-phenylpiperidin-4-ol concentrations (0.625 nM to 60 nM).
For the competition assay, test compounds were incubated in duplicate with 5 nM [^3H]-1-[(1S*,2S*)-2-hydroxy-2-(4-hydroxyphenyl)-1-methylethyl]-4-phenylpiperidin-4-ol and 50 μg protein of P2 membrane for 60 minutes at room temperature in a final 100 μl of 50 mM Tris HCl buffer (pH7.4). Nonspecific binding was determined by 10 μM of unlabeled 1-[(1S*,2S*)-2-hydroxy-2-(4-hydroxyphenyl)-1-methylethyl]-4-phenylpiperidin-4-ol (25 μl). The saturation derived KD gained in saturation assay was used for all Ki calculations.
All incubations were terminated by rapid vacuum filtration over 0.2% polyethyleneimine soaked Whatman GF/B glass fibre filter paper using a SKATRON cell harvester followed by three washes with ice-cold filtration buffer (5 mM Tris HCl, pH 7.4.). Receptor-bound radioactivity was quantified by liquid scintillation counting using Packard LS counter. Competition assays were performed by counting Wallac GF/B filters on Betaplate scintillation counter (Wallac).

Human HERG = Human HERG (Homo sapiens, UniProt Q12809)
Sequence of Human HERG (Q12809 whole entry): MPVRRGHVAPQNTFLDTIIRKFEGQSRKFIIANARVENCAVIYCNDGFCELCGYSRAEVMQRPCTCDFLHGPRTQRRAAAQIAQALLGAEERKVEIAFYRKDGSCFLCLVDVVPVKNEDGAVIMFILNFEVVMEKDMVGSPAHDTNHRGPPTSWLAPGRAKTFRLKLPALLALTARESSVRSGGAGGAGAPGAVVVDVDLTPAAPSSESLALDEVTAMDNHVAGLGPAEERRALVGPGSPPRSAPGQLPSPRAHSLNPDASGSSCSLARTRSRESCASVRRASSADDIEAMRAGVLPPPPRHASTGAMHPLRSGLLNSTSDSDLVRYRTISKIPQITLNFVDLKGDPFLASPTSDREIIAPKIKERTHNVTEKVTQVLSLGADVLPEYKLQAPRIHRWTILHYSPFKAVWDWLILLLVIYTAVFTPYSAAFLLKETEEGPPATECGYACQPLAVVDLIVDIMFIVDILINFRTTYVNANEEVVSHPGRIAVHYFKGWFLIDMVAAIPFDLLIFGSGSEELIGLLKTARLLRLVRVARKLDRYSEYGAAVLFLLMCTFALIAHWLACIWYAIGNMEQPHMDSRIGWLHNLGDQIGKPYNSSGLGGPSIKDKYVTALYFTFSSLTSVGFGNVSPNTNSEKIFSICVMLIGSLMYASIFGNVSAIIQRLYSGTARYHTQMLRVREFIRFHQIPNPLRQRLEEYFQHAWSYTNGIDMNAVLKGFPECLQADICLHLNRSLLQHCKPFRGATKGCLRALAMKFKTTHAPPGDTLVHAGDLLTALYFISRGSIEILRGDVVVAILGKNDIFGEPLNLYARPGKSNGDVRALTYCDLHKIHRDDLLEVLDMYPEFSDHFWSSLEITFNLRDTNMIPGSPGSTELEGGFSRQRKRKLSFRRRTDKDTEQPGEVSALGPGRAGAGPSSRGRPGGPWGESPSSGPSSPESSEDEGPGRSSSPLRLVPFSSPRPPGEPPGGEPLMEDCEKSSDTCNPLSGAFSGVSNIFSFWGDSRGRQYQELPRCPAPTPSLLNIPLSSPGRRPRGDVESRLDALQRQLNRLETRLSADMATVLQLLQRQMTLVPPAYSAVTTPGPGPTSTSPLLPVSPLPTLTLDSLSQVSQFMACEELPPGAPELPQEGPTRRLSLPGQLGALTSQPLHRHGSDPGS
Method: Human HERG transfected HEK293S cells were prepared and grown in-house. The collected cells were suspended in 50 mM Tris-HCl (pH 7.4 at 4° C.) and homogenized using a hand held Polytron PT 1200 disruptor set at full power for 20 sec on ice. The homogenates were centrifuged at 48,000×g at 4° C. for 20 min. The pellets were then resuspended, homogenized, and centrifuged once more in the same manner. The final pellets were resuspended in an appropriate volume of 50 mM Tris-HCl, 10 mM KCl, 1 mM MgCl2 (pH 7.4 at 4° C.), homogenized, aliquoted and stored at −80° C. until use. An aliquot of membrane fractions was used for protein concentration determination using BCA protein assay kit (PIERCE) and ARVOsx plate reader (Wallac).
Binding assays were conducted in a total volume of 200 μl in 96-well plates. Twenty μl of test compounds were incubated with 20 μl of [^3H]-dofetilide (Amersham, final 5 nM) and 160 μl of membrane homogenate (25 μg protein) for 60 minutes at room temperature. Nonspecific binding was determined by 10 μM dofetilide at the final concentration. Incubation was terminated by rapid vacuum filtration over 0.5% presoaked GF/B Betaplate filter using Skatron cell harvester with 50 mM Tris-HCl, 10 mM KCl, 1 mM MgCl2, pH 7.4 at 4° C. The filters were dried, put into sample bags and filled with Betaplate Scint. Radioactivity bound to filter was counted with Wallac Betaplate counter.

Sequence of HERG potassium channel (Q12809 whole entry): as above
T1 sequence (Q00960 27-1482, other chains not shown): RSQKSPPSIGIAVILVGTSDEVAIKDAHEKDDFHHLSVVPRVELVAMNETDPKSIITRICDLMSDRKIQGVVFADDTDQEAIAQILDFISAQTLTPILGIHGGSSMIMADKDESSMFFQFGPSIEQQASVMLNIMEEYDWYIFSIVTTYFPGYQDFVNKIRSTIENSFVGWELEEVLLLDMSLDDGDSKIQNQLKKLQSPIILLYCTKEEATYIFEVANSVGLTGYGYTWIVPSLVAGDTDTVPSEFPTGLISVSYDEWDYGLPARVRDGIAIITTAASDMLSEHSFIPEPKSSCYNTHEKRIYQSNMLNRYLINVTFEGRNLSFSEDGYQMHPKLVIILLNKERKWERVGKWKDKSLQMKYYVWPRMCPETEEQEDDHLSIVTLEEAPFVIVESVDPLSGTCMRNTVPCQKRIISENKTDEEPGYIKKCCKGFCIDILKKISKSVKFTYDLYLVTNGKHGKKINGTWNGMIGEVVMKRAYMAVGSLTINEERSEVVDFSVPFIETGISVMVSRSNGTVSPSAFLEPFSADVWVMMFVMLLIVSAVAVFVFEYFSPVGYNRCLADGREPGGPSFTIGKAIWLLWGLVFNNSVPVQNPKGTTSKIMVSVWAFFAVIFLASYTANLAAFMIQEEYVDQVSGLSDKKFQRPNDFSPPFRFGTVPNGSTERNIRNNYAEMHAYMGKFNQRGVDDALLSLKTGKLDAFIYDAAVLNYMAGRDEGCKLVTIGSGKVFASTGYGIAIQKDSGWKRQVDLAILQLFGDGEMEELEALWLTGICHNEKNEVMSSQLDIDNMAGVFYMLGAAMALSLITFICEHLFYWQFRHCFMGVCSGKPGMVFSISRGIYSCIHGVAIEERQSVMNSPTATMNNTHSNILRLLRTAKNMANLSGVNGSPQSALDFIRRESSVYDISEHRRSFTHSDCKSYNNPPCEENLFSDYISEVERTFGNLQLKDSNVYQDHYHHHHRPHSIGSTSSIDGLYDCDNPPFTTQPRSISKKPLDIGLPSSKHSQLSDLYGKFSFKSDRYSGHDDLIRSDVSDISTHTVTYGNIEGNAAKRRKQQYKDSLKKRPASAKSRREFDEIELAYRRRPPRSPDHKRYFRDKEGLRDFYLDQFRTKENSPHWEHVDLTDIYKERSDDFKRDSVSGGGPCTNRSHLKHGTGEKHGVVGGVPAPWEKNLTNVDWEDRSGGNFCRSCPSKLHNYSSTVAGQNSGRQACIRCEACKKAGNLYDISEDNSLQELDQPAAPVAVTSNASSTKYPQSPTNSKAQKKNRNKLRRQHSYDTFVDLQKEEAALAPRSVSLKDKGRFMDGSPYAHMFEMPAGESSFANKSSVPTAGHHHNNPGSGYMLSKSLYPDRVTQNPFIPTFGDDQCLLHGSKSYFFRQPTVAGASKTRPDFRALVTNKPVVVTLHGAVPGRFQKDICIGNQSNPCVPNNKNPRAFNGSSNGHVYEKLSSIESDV

Row | Compound | IC50 (HERG potassium channel) | IC50 (NR2B receptor) | IC50 (Human HERG)
1 | O=C(NCC1CCN(CCCc2ccccc2)CC1)c1ccc(O)cc1 [Compound (i)] | < 3000 nM | – | –
2 | O=C(NC[C@H]1CC[C@@H](OCCc2ccccc2)CC1)c1ccc(O)nc1 [Example 71, 6-Hydroxy-N-{[cis-4-(2-phenethoxy)cyclohexyl]methyl}nicotinamide] | – | 7.1 nM | > 100000 nM
